Results as given in patent US7268152B2, “Glucocorticoid mimetics, methods of making them, pharmaceutical compositions, and uses thereof” (Boehringer Ingelheim Pharmaceuticals, Inc., priority 2002, dated 2007).

Work on COc1ccc(F)cc1C(C)(C)CC(O)(Cc1cc(C)cc(C)c1C#N)C(F)(F)F (stereo not shown) [Example 32, 2-[4-(5-fluoro-2-methoxyphenyl)-2-hydroxy-4-methyl-2-trifluoromethylpentyl]-4,6-dimethylbenzonitrile] yielded a melting point of 134 to 136 °C.
